BigSolDB 2.1

O=C([O-])c1ccccc1.[K+]
solubility (mole fraction)
Details	in DMAc	in DMF	in ethanol	in formamide	in isobutanol	in isopropanol	in methanol	in n-butanol	in n-pentanol	in n-propanol
282.95 K	0.000243	0.000325	0.00133	0.0439	0.000248	0.000225	0.0144	0.000586	0.000517	0.000735
287.95 K	0.000263	0.000372	0.00143	0.0444	0.000284	0.000256	0.0148	0.000617	0.000604	0.000781
293.25 K	0.000287	0.000426	0.00157	0.045	0.000325	0.000286	0.0153	0.000646	0.000693	0.000841
298.25 K	0.000309	0.000502	0.00168	0.0457	0.000355	0.000314	0.0158	0.000673	0.000776	0.000892
303.35 K	0.000333	0.000587	0.00181	0.0465	0.000402	0.000354	0.0162	0.000731	0.000865	0.000961
308.25 K	0.000367	0.000665	0.00192	0.0473	0.000457	0.000409	0.0167	0.000795	0.000929	0.00104
312.85 K	0.000392	0.000722	0.0021	0.0481	0.000517	0.000459	0.0172	0.000898	0.000986	0.00115
317.95 K	0.000425	0.000778	0.00244	0.0489	0.000572	0.000511	0.0181	0.000983	0.00105	0.00126
